Results as given in patent US20130183418A1, “METHOD OF INHIBITION OF ENZYMATIC BROWNING IN FOOD USING A SULFINIC ACID COMPOUND” (UNIVERSITY OF FLORIDA RESEARCH FOUNDATION, INC., priority 2008, published 2013).

System: apple polyphenol oxidase
Experiment: Polyphenol oxidase assay, color formation from catechol at 420 nm
Type: biochemical, Red Delicious apples
Conditions: for Average % Inhibition of apple PPO: average ± standard deviation, n = 6; for apple PPO activity: n=3, control 0.24±0.02
Description: Acetone powder containing apple polyphenol oxidase was prepared from Red Delicious apples. Cored and peeled apple pieces (200 g) were homogenized in a precooled blender along with 400 mL cold acetone (−20° C.) for 1 min and then filtered through Whatman No. 1 filter paper. The residue was extracted 3 times with 200 mL cold acetone and the resulting white powder was dried at room temperature, vacuum sealed in commercial plastic bags, and stored at −20° C. until needed. Crude PPO enzyme from the acetone powder was reconstituted in 0.1 M KH2PO4/Na2HPO4, pH 7.2 Containing 1% Triton X-100 (Bio-Rad Laboratories, Hercules, Calif.) using modified procedures of Murata et al. “Relationship between apple ripening and browning—changes in polyphenol content and polyphenol oxidase”, Journal of Agricultural and Food Chemistry 1995, 43 (5), 1115-21 and Yemenicioglu et al. “Heat inactivation kinetics of apple polyphenoloxidase and activation of its latent form”, Journal of Food Science 1997, 62 (3): 508-10. Acetone powder (1 g) was added to 50 mL of refrigerated 0.1 M KH2PO4/Na2HPO4, pH 7.2 buffer containing 1% TritonX-100 (Bio-Rad Laboratories, Hercules, Calif.) and the mixture was stirred for 20 min at 4° C. The suspension was centrifuged at 1200×g for 30 min, then filtered through glass wool and stored at −20° C. where it remained stable for at least 1 month.
A standard reaction mixture for evaluation of browning inhibition where the hypotaurine comprising solution was a mussel extract, consisted of 2.45 mL of 0.1 sodium acetate/acetic acid buffer, pH 5.5, 0.2 ml mussel extract (or additional pH 5.5 buffer for a control run for comparison), 0.3 mL of 0.5 M catechol (Sigma, St. Louis, Mo.) and 0.05 mL of enzyme extract. The percent inhibition was calculated with the following formula: I=100*(A-B)/A, where A and B are the greatest initial linear rate of the control and the test system respectively.
Polyphenol oxidase activity was measured by monitoring the increase in color (absorbance at 420 nm) in a reaction mixture with catechol as a substrate. […] From the data in FIG. 1, the inhibition of polyphenol oxidase by 90 ppm of hypotaurine was calculated to be 97 percent with a 30 fold decrease in the rate of browning. The mussel extract was employed in a similar manner and inhibition was calculated to be 93 percent with a 14 fold decrease in the rate of browning. […]

[1] = 90 ppm of hypotaurine, catechol substrate, FIG. 1

Average % Inhibition of apple PPO (67.5 μM) | Average % Inhibition of apple PPO (250 μM) | Average % Inhibition of apple PPO (500 μM) | Average % Inhibition of apple PPO (500 μM, listed as methane sulfinic acid) | apple PPO activity (67.5 μM) | apple PPO activity (250 μM) | apple PPO activity (500 μM) | inhibition of apple PPO (in words) (67.5 to 500 μM) | Structure (SMILES) | Average % Inhibition of apple PPO (500 μM, listed as hypotaurine) | fold decrease in the rate of browning [1] | inhibition of polyphenol oxidase [1]
20.9 ± 16.15% | 98.5 ± 1.28% | 100% |  |  |  |  |  | O=S(O)c1ccccc1 [Benzene Sulfinic Acid, benzene sulfinic acid] |  |  | 
33.7 ± 0.69% | 96.8 ± 0.69% | 99.8 ± 0.11% | 100% |  |  |  |  | CS(=O)O [Methane Sulfinic Acid, methane sulfinic acid] |  |  | 
 |  |  |  | 0.23±0.04 ΔA420 nm/min | 0.25±0.01 ΔA420 nm/min | 0.23±0.01 ΔA420 nm/min | did not inhibit | NCCS(=O)(=O)O [Taurine, reference compound] |  |  | 

Structure (SMILES) | Average % Inhibition of apple PPO (67.5 μM) | Average % Inhibition of apple PPO (250 μM) | Average % Inhibition of apple PPO (500 μM) | Average % Inhibition of apple PPO (500 μM, listed as methane sulfinic acid) | apple PPO activity (67.5 μM) | apple PPO activity (250 μM) | apple PPO activity (500 μM) | inhibition of apple PPO (in words) (67.5 to 500 μM) | Average % Inhibition of apple PPO (500 μM, listed as hypotaurine) | fold decrease in the rate of browning [1] | inhibition of polyphenol oxidase [1]
NCCS(=O)O [Hypotaurine, 2-aminoethane sulfinic acid] | 39.1 ± 4.48% | 80.0 ± 14.90% | 89.8 ± 7.65% |  |  |  |  |  | 89% | 30 fold | 97%
